Key:
seagulls = assay: Deterrence of seagulls from flat roof (Example 3); assay type: in vivo; conditions: 50% by weight aqueous dispersion of 9,10-anthraquinone
Excerpt: (§1) In the following examples, the treating material was an aqueous dispersion of small particles of 9,10-anthraquinone containing 50% by weight of the anthraquinone and a small amount of surfactant.
A large number of seagulls regularly roosted on the flat roof of an industrial building in Northern California.

brown-headed cowbirds = assay: Avian perching deterrent test, brown-headed cowbirds (Example 7); assay type: in vivo, Molothrus ater
Excerpt: Two (2) pens (10×20×6 feet) constructed of wood and aviary wire in a roofed outdoor aviary with a concrete floor were erected. At one end of each pen a water bowl and a food bowl containing the birds' maintenance diet was provided. On the morning of day 1, the test birds were transferred from their holding cages to each of the test pens. In each pen, there was one centrally located perch. At 0800 on the morning of day 2, this perch was removed and 2 test perches were installed, one in each of the corners at the end of the pen away from the food and water. For red-winged blackbirds (Agelaius phoeniceus) and brown-headed cowbirds (Molothrus ater), the perches were made of aluminum rod, 1.2 m long and 1.0 cm in diameter. For fish crows (Corvus ossigragus), the test perches were hollow stainless steel pipe, 1.2-m long and 2.25 cm in diameter. One of the test perches (randomly determined) was coated with a product containing 50% AQ as the active ingredient (the "repellent"), and the other was uncoated. […]
Test perches remained in the pens until 1500 on day 3 at which time the birds were captured, banded and released. […] The number of birds on each of the test perches were recorded at 1-min intervals. […]
(§2) To analyze responses of the birds to the perch treatment, the mean number of birds on each perch during each of the 6 30-min observation periods was used. The data are expressed as birds/min. […]

[1] = LD50 in northern bobwhite quail; conditions: in vivo, separate study
pigeons [2] = assay: Deterrence of pigeons from metal beam of sports arena (Example 6); assay type: in vivo; conditions: four ounces of 50% dispersion in 29 gallons of water
Excerpt: as §1
Four ounces of a 50% by weight dispersion of anthraquinone in water were mixed with 29 gallons of water. The mixture was sprayed on a twenty foot section of a metal beam in the superstructure of a large sports arena. The treated beam section was open to the atmosphere and had become a roost for pigeons. Prior to the treatment, a section of walkway beneath the beam was cleaned weekly of 50-60 bird droppings. After more than 30 days following treatment of the beam with the above-described dilute anthraquinone dispersion, the pigeons had not returned to the roosting site.

crows = assay: Deterrence of crows from flat roof (Example 4); assay type: in vivo; conditions: 50% by weight aqueous dispersion of 9,10-anthraquinone
Excerpt: as §1
In Philadelphia Pa., a large number of crows, estimated at over two hundred thousand, regularly roosted on the flat roof of an industrial building.

fish crows = assay: Avian perching deterrent test, fish crows (Example 7); assay type: in vivo, Corvus ossigragus
Excerpt: (§3) Two (2) pens (10×20×6 feet) constructed of wood and aviary wire in a roofed outdoor aviary with a concrete floor were erected. At one end of each pen a water bowl and a food bowl containing the birds' maintenance diet was provided. On the morning of day 1, the test birds were transferred from their holding cages to each of the test pens. In each pen, there was one centrally located perch. At 0800 on the morning of day 2, this perch was removed and 2 test perches were installed, one in each of the corners at the end of the pen away from the food and water. For red-winged blackbirds (Agelaius phoeniceus) and brown-headed cowbirds (Molothrus ater), the perches were made of aluminum rod, 1.2 m long and 1.0 cm in diameter. For fish crows (Corvus ossigragus), the test perches were hollow stainless steel pipe, 1.2-m long and 2.25 cm in diameter. One of the test perches (randomly determined) was coated with a product containing 50% AQ as the active ingredient (the "repellent"), and the other was uncoated. The repellent was applied to the perches with a paint brush 24-48 hours before the test. The repellent was easily applied and appeared somewhat like thinned paint. It covered the metal surfaces very well, with some streaking, and formed an opaque coating that was dry to the touch by the start of the trial. Approximately 7.5 g wet weight was applied to each crow perch and approximately 3.5 g to each blackbird/cowbird perch.
(§4) Test perches remained in the pens until 1500 on day 3 at which time the birds were captured, banded and released. The activity was videotaped in each pen during 3 30-min periods daily: 0800-0830, 1100-1130, and 1400-1430. The videotapes were reviewed to determine bird use of the perches. The number of birds on each of the test perches were recorded at 1-min intervals. Activity and locations of birds not on the perches was also noted. […]
as §2

birds [3] = assay: Pen and field observations of bird behavior and adverse effects; assay type: in vivo
Excerpt: Pen and field observations of bird behavior were made throughout the studies. In no situation were adverse effects or discomfort to the observed birds. In feeding on rice seeds, the birds squeezed the grain from the hull then ejected the hull from their mouths and ate only the inner grain.

red-winged blackbirds = assay: Avian perching deterrent test, red-winged blackbirds (Example 7); assay type: in vivo, Agelaius phoeniceus
Excerpt: as §3, §4, §2

birds [4] = assay: Avian perching deterrent test, all 3 test species (Example 7); assay type: in vivo, red-winged blackbirds, brown-headed cowbirds, fish crows
Excerpt: as §3
Test perches remained in the pens until 1500 on day 3 at which time the birds were captured, banded and released. The activity was videotaped in each pen during 3 30-min periods daily: 0800-0830, 1100-1130, and 1400-1430. The videotapes were reviewed to determine bird use of the perches. The number of birds on each of the test perches were recorded at 1-min intervals. Activity and locations of birds not on the perches was also noted. Five (5) groups of blackbirds and cowbirds and 4 groups of fish crows were tested. For blackbirds and cowbirds, there were 4 birds in each test group. For fish crows, we used 2 birds per pen.
To analyze responses of the birds to the perch treatment, the mean number of birds on each perch during each of the 6 30-min observation periods was used. The data are expressed as birds/min. A separate 2-way repeated measures analysis of variance for each of the 3 bird species was performed to test the null hypothesis of equal use between the two perches.

geese [5] = assay: Deterrence of geese from loafing/roosting on grassy turf (Example 1); assay type: in vivo
Protocol: A formulation containing 50% wt., basis total formulation, of 9,10-anthraquinone dispersed in water with a small amount of surfactant and thickener was prepared and sprayed onto untreated grassy turf in an area where geese normally loaf or roost. One-third acre of turf was treated with areas of untreated turf bordering on both sides of the treated area. The dispersed anthraquinone particles were applied at a rate of 1 pint/acre (approximately 50 mg/m^2) on the treated area. […] The differences in the effects of the treated area versus the untreated area were easily noted. […] The geese were repelled from the treated area for approximately two weeks until the turf was cut. After cutting, another treatment was applied. The dispersed anthraquinone particles were applied at a rate of 1/2 pint/acre (approximately 25 mg/m^2) in the same manner of treating one strip of turf bordered by untreated turf. […] The test was continued for approximately two weeks. The test was concluded due to snow.

geese [6] = assay: Deterrence of geese from 6.2 acre grassy test site (Example 2); assay type: in vivo
Protocol: A grassy test site having an area of 6.2 acres was selected within the grounds of a large campus style research complex having a substantial flock of geese in residence, which numbers 250-300 geese during the day and as many as 500 geese in the evening hours. In order to determine when daily observations should be made, the site was observed beforehand to determine the times during which the maximum number of geese were on the test site. Observations were conducted at the same time(s) each day in such manner that the behavior of the geese could be observed without disturbance. In addition, the number of droppings in selected areas of the site were counted each day, recorded and then removed from the test area by raking.
Following 10 days observation of the untreated test site, the above-described goose repellent composition was sprayed on the test area using a calibrated spray tank and a fan-shaped head sprayer. The liquid spray contained one gallon of repellent per 140 gallons of water and the rate of application was 2.77 pounds of AQ per acre of the mixture. In the absence of rain, the applied composition fully dried on the blades of grass within 24 hours.

pigeons [7] = assay: Deterrence of pigeons from steel beams of aircraft hangar (Example 5); assay type: in vivo; conditions: 50% by weight aqueous dispersion of 9,10-anthraquinone
Excerpt: as §1
Pigeons regularly roosted on the exposed steel beams within a large aircraft hangar in Wilmington Del.

[8] = treated on day 10, following a heavy rain

Compound: O=C1c2ccccc2C(=O)c2ccccc21 [9,10-anthraquinone]
- use of treated roof by gulls (seagulls): the gulls did not further use the surface for roosting
- use of the treated perch (brown-headed cowbirds; 50% AQ coating, SE=0.14, untreated perch 1.70 (SE=0.23), P=0.015): 0.62 birds/min
- bird use of each perch on the second day (brown-headed cowbirds; day x perch interaction P=0.222): bird use of each perch declined on the second day
- LD50 [1]: > 2000 mg/kg
- time following treatment during which pigeons had not returned to the roosting site (pigeons [2]): more than 30 days
- return of crows (crows): the crows did not return
- use of the treated perch (fish crows; 50% AQ coating, SE=0.08, untreated perch 1.28 (SE=0.08), P=0.014): 0.64 birds/min
- use of the untreated perch relative to treated perch (fish crows; P=0.014): approximately twice
- use of treated perch from day 1 to day 2 (fish crows; day x perch interaction P=0.090): decreased use of the treated perch from day 1 to day 2
- irritation of birds exposed on food (birds [3]; exposed to anthraquinone on food): no sign of irritation
- effect of treated seeds on birds' behavior or pain (birds [3]; feeding on treated rice seeds): did not affect the birds' behavior or induce pain
- effect of consumption on feeding behavior (birds [3]; grams of feed per day): did not affect feeding behavior
- death of test birds (birds [3]; upon completion of all studies): No test birds died
- use of the treated perch (red-winged blackbirds; 50% AQ coating, SE=0.06, untreated perch 0.86 (SE=0.10), P=0.067): 0.41 birds/min
- use of the untreated perch relative to treated perch (red-winged blackbirds; P=0.067): more than twice
- use of treated perch from day 1 to day 2 (red-winged blackbirds; day x perch interaction P<0.001): decrease use of the treated perch from day 1 to day 2
- preference of test species (birds [4]; 2-day trials, perch coated with repellent vs untreated): each of the 3 test species displayed a preference for the untreated perch over the one coated with repellent
- signs of illness on videotapes (birds [4]; e.g. decreased activity, fluffed feathers, vomiting): no sign of illness was observed
- discomfort on the treated perch (birds [4]; in vivo): no indication that they were uncomfortable or bothered by the feel of the perch was observed
- initial reluctance to use the treated perches (birds [4]; in vivo): No initial reluctance by birds to use the treated perches was observed
- repellency (geese [5]; 1/2 pint/acre (approximately 25 mg/m^2), after cutting, about two weeks): The same repellency was exhibited
- behavior of geese that entered the treated area (geese [5]; 1 pint/acre (approximately 50 mg/m^2)): immediately ceased eating, exited the treated area, entered a nearby pond and began to wash or rinse themselves
- goose count, second day after application (geese [6]; 2.77 pounds of AQ per acre, before treatment average about 150 geese): zero
- goose count, day after application (geese [6]; 2.77 pounds of AQ per acre, before treatment average about 150 geese (45 to 305)): about 110 geese
- period for which number of geese remained quite low in treated area vs surrounding untreated areas (geese [6]; following the treatment): more than 3 months
- birds' behavior after treatment of the test area (geese [6]; in vivo): large numbers of birds were observed milling around, but not entering the treated area
- number of geese, days 12-23 (geese [6]; treated on day 10): only a few geese were observed from time-to-time
- number of geese, day 11 (geese [6]; treated on day 10 (over 300 geese), 2.77 pounds of AQ per acre): 109 geese
- number of geese, day 12 (geese [6]; treated on day 10, 2.77 pounds of AQ per acre): zero
- goose count, day 23 (geese [6]; [8]): 27 geese
- number of droppings, day 23 (geese [6]; [8]): 13 droppings
- number of geese, day 18 (geese [6]; treated on day 10, very low quantity of droppings): 18 geese
- return of pigeons (pigeons [7]): the pigeons did not return
